One data set relates to BVDV-strain Pe515. It is filed as cell-based, bovine viral diarrhea virus.
A further data set has as its system BDV. It is filed as cell-based, Border disease virus.
Another data set relates to BVDV I cp. It is filed as cell-based, Bovine viral diarrhea virus.
The next data set relates to CMV AD-169. The class given is cell-based, human cytomegalovirus.
In a further data set the test system is VV. The class given is cell-based, vaccinia virus.
In a further data set the test system is CMV Davis. It is filed as cell-based, human cytomegalovirus.
A further data set relates to HIV-2 (ROD). The class given is cell-based, human immunodeficiency virus.
In a further data set the test system is L1210/0. It is filed as cell-based, murine.
For another data set, the system named is FM3A/0. The class given is cell-based, murine.
The next data set has as its system VZV OKA. The class given is cell-based, varicella zoster virus.
The next data set relates to HIV-1 (IIIB). The class given is cell-based, human immunodeficiency virus.
The next data set deals with VZV YS. The class given is cell-based, varicella zoster virus.
The subject of a further data set is Molt4/C8. The class given is cell-based, human.
In the next data set the test system is HSV-2 (G). It is filed as cell-based, herpes simplex virus.
The subject of the next data set is CEM/0. It is filed as cell-based, human.
For the next data set, the system named is HSV-1 (KOS). The class given is cell-based, herpes simplex virus.

The values that follow come from US7842719B2 (priority 2002, dated 2010).

Values after ≈ are worked out from the molar mass of the structure shown.

Broadly, the EC90 is the point of the concentration-response curve where the effect stands at 90%. High values mean a need for much substance, low ones an effect from little substance. `CO[C@H]1O[C@@H]2O[C@@]3(C)CC[C@H]4[C@H](C)CC[C@@H]([C@H]1C)[C@@]24OO3` [Artemether, artemether]: the toxic concentration result in the data set with Non infected cells is recorded as “around 100 μg/ml”. Besides, in the data set with BVDV-strain Pe515, the “EC50 BVDV” value was 0.3 µg/mL (≈ 1.01 µM) and the “activity against BVDV” value is recorded as “strong anti-viral activity”. Also, the “cell toxicity” value with MDBK cells is listed as “stayed low”. For the same compound, the EC90 in the data set on BDV was determined as 0.8 µg/mL (≈ 2.68 µM). Besides, in the data set with BVDV I cp, the concentration for an effect of 90% (EC90) was determined as 0.16 µg/mL (≈ 0.536 µM).
Consider `C[C@@H]1CC[C@H]2[C@@H](C)C(=O)O[C@@H]3O[C@@]4(C)CC[C@@H]1[C@]32OO4` [Artemisinin, artemisinin], for which, in the data set on CMV AD-169, the “EC50 CMV AD-169 (HEL)” value was over 50 µg/mL. For the same compound, in the data set on VV, the “EC50 VV (E6SM)” value amounted to 240 µg/mL (≈ 850 µM). Further, the “antiviral activity against VV” value in the data set on VV was “showed antiviral activity”. Besides, the “EC50 CMV Davis (HEL)” value in the data set with CMV Davis is over 50 µg/mL. In the data set on BVDV-strain Pe515, the “EC50 BVDV” value came out at 0.4 µg/mL (≈ 1.42 µM). The “activity against BVDV” value in the data set with BVDV-strain Pe515 is reported as “strong anti-viral activity”. For the same compound, the “EC50 HIV-2 (ROD) (CEM)” value in the data set with HIV-2 (ROD) was over 20 µg/mL. In addition, the “activity against tumor cell line” value in the data set with L1210/0, in the data set with FM3A/0, in the data set with Molt4/C8 and in the data set with CEM/0 was “no interesting activity” throughout. Also, the “cell toxicity” value in the data set with MDBK cells is listed as “stayed low”. In addition, the “EC50 VZV (HEL) OKA” value in the data set with VZV OKA was over 50 µg/mL. Also, the “EC50 HIV-1 (IIIB) (CEM)” value in the data set on HIV-1 (IIIB) is over 20 µg/mL. In addition, the “EC50 VZV (HEL) YS” value in the data set with VZV YS was over 50 µg/mL. The “EC50 HSV-2 (G) (E6SM)” value in the data set on HSV-2 (G) stood at 240 µg/mL (≈ 850 µM). Moreover, the “antiviral activity against HSV-2” value in the data set with HSV-2 (G) is listed as “showed antiviral activity”. In the data set with HSV-1 (KOS), the “EC50 HSV-1 (KOS) (E6SM)” value was over 400 µg/mL.
As for `C[C@H]1[C@H](OC(=O)CCC(=O)O)O[C@@H]2O[C@@]3(C)CC[C@H]4[C@H](C)CC[C@@H]1[C@@]24OO3` [Artensunate, artesunate], in the data set on BVDV-strain Pe515, the “EC50 BVDV” value came to 0.07 µg/mL (≈ 0.182 µM) and the “activity against BVDV” value is “strong anti-viral activity”. In addition, in the data set with MDBK cells, the “MTC MDBK (minimal toxic concentration)” value worked out at 0.4 µg/mL and the “cell toxicity” value is given as “stayed low”.
The corresponding values for `C[C@H]1[C@@H](O)O[C@@H]2O[C@@]3(C)CC[C@H]4[C@H](C)CC[C@@H]1[C@@]24OO3` [Dihydroartemisinin, dihydroartemisinin] are 0.05 µg/mL (≈ 0.176 µM), “strong anti-viral activity”, 0.4 µg/mL and “stayed low”.
